According to patent US20250320565A1, “DETECTING ANTIBIOTIC AND/OR CHEMICAL USE IN AQUATIC ANIMALS USING EPIGENETIC MEANS” (Evonik Operations GmbH, priority 2022, published 2025):

Tested on: marble crayfish
Assay: DNA methylation analysis (Agilent Sure Select Methyl-Seq) of abdominal tissue genomic DNA after antibiotic administration in feed
Type: in vivo
Conditions: for number of DNA segments with significant differences between the control and the treated animals: Kruskal Wallis test, p<0.05, CpGs with at least 10 reads, average methylation <0.2 or >0.8 filtered out
Protocol: Marble crayfish collected from a population at Lake Reilinger, Germany were collected for the experiment and reared from juveniles in the laboratory. A total of 30 adult marbled crayfish were reared in one of 5 treatments with replicates as outlined in Table 1: • 1) Control—no antibiotic treatment • 2) TetraA—Acute tetracycline administration at 10 mg/kg of feed for 7 days • 3) TetraB—Prophylactic tetracycline administration at 5 mg/kg of feed for 42 days • 4) NorA—administered at 10 mg/kg of feed for 7 days • 5) NorB—administered at 5 mg/kg of feed for 28 days
All other rearing variables were kept consistent for all treatment groups. Crayfish were reared in plastic containers with 20° C. tap water, which was replaced every two weeks, exposed to natural day-night light rhythms and daily feeding.
A subset of abdominal tissue genomic DNA samples (Table 1) was utilized for analysis of the Agilent Sure Select Methyl-Seq Assay. Abdominal tissue was extracted from marble crayfish directly after treatment duration, DNA was then extracted as previously described (Tönges et al, 2021).
Library preparation was carried out as described in the Agilent's Sure Select Methyl-Seq Target Enrichment System for Illumina Multiplexed Sequencing Protocol (version E0, April 2018) to specifically analyze 361 genes. These genes were previously characterized as variably methylated genes in the marble crayfish genome, showing differential site-specific methylation patterns in marble crayfish from different wild populations (Gatzmann et al., 2018; Tönges et al., 2021b).
Quality controls were performed, and sample concentrations were measured on a 2,200 TapeStation (Agilent). Multiplexed samples were submitted to the DKFZ High Throughput Sequencing core facility and sequenced on a HiSeq system (Illumina). For data analysis, the 361 sequenced genes were mapped to the bisulfite sequencing datasets of the entire […] genome (Gatzmann et al., 2018; Xi and Li 2009).
To identify antibiotic-specific methylation ratios in genomic DNA from abdominal tissue, the average methylation of each sample within 1 kb of DNA segments was calculated.
The data sets of the 1754 DNA segments were further analyzed and only the CpG positions covered in all samples with at least 10 reads were used. In addition, the CpGs that were either completely methylated or unmethylated (average methylation <0.2 or >0.8) were filtered out.
The DNA segments of the PCA were further analyzed and only the CpG positions that have at least 10 reads in all samples were reused. Furthermore, the CpGs that are completely unmethylated or methylated (average methylation <0.2 or >0.8) were filtered out.

[1] = NorB: 5 mg/kg of feed for 28 days, compared with control and NorA
[2] = control vs the two treatment groups, average methylation

Compound | number of DNA segments with significant differences between the control and the treated animals | average methylation rates of eight CpGs of gene Scaffold_52370: 13110767-13110901 (NorA: 10 mg/kg of feed for 7 days, compared with control) | methylation rates of eight CpGs of gene Scaffold_36323: 7555-7623 [1] | methylation ratios of eight CpGs of gene Scaffold_52370: 13110767-13110901 [1] | PCA separation between treated and untreated samples and between the two treatment groups (PCA of differentially methylated DNA segments) | effect size Cohen's d of all other DNA segments (very small effect) [2] | number of DNA segments showing a small effect (Cohen's d>0.2) [2] | analysis of DMRs, treatment groups vs control (p>0.05)
CN(C)[C@@H]1C(O)=C(C(N)=O)C(=O)[C@@]2(O)C(O)=C3C(=O)c4c(O)cccc4[C@@](C)(O)[C@H]3C[C@@H]12 [tetracycline] | 432 |  |  |  |  |  |  | 
CCn1cc(C(=O)O)c(=O)c2cc(F)c(N3CCNCC3)cc21 [norfloxacin] | 71 | no significant difference | higher methylation rates in all CpGs | higher methylation ratios of all CpGs | robust separation | < 0.02 | 4 | no significant differences
